In ChEMBL document CHEMBL1152735, “Synthesis and antiprotozoal activity of novel 1-methylbenzimidazole derivatives” (Bioorg Med Chem, 2009):

Columns and labels:
Trichomonas vaginalis = assay: Antiprotozoal activity against Trichomonas vaginalis GT3 trophozoites after 48 hrs; type: functional, organism-based; settings: GT3, 48 h
Giardia intestinalis = assay: Antiprotozoal activity against Giardia intestinalis IMSS:0981:1 trophozoites after 48 hrs; type: functional, organism-based; settings: Giardia duodenalis

SMILES: CC(O)c1nc2cc(Cl)c(Cl)cc2n1C (stereo not given)
- IC50 (Trichomonas vaginalis): 40.7 nM
- IC50 (Giardia intestinalis): 20.3 nM

SMILES: CC(=O)c1nc2ccc(Cl)cc2n1C
- IC50 (Trichomonas vaginalis): 228 nM
- IC50 (Giardia intestinalis): 67 nM

SMILES: CC(=O)c1nc2ccccc2n1C
- IC50 (Trichomonas vaginalis): 210 nM
- IC50 (Giardia intestinalis): 86.1 nM

SMILES: Cn1c(C(N)=O)nc2ccccc21
- IC50 (Trichomonas vaginalis): 166 nM
- IC50 (Giardia intestinalis): 94.2 nM

SMILES: Cn1c(C(N)=O)nc2ccc(Cl)cc21
- IC50 (Trichomonas vaginalis): 109 nM
- IC50 (Giardia intestinalis): 76.3 nM

SMILES: CC(O)c1nc2ccc(Cl)cc2n1C (stereo not given)
- IC50 (Trichomonas vaginalis): 109 nM
- IC50 (Giardia intestinalis): 71.2 nM

SMILES: CCOC(=O)c1nc2ccccc2n1C
- IC50 (Trichomonas vaginalis): 85.7 nM
- IC50 (Giardia intestinalis): 68.6 nM

SMILES: CC(=O)c1nc2cc(Cl)c(Cl)cc2n1C
- IC50 (Trichomonas vaginalis): 63.7 nM
- IC50 (Giardia intestinalis): 34.9 nM

SMILES: CNC(=O)c1nc2ccccc2n1C
- IC50 (Trichomonas vaginalis): 108 nM
- IC50 (Giardia intestinalis): 60.8 nM

SMILES: CC(O)c1nc2ccccc2n1C (stereo not given)
- IC50 (Trichomonas vaginalis): 167 nM
- IC50 (Giardia intestinalis): 68.1 nM

SMILES: Cn1c(C(N)=O)nc2cc(Cl)c(Cl)cc21
- IC50 (Trichomonas vaginalis): 134 nM
- IC50 (Giardia intestinalis): 462 nM

SMILES: CNC(=O)c1nc2ccc(Cl)cc2n1C
- IC50 (Trichomonas vaginalis): 105 nM
- IC50 (Giardia intestinalis): 71.5 nM

SMILES: CCOC(=O)c1nc2ccc(Cl)cc2n1C
- IC50 (Trichomonas vaginalis): 18.9 nM
- IC50 (Giardia intestinalis): 48.2 nM

SMILES: CNC(=O)c1nc2cc(Cl)ccc2n1C
- IC50 (Trichomonas vaginalis): 358 nM
- IC50 (Giardia intestinalis): 358 nM

SMILES: CN(C)C(=O)c1nc2cc(Cl)c(Cl)cc2n1C
- IC50 (Trichomonas vaginalis): 75.3 nM
- IC50 (Giardia intestinalis): 73.5 nM

SMILES: CN(C)C(=O)c1nc2cc(Cl)ccc2n1C
- IC50 (Trichomonas vaginalis): 210 nM
- IC50 (Giardia intestinalis): 244 nM

SMILES: CCOC(=O)c1nc2cc(Cl)ccc2n1C
- IC50 (Trichomonas vaginalis): 27.2 nM
- IC50 (Giardia intestinalis): 39.8 nM

SMILES: CCOC(=O)c1nc2cc(Cl)c(Cl)cc2n1C
- IC50 (Trichomonas vaginalis): 29.3 nM
- IC50 (Giardia intestinalis): 27.5 nM

SMILES: CC(O)c1nc2cc(Cl)ccc2n1C (stereo not given)
- IC50 (Trichomonas vaginalis): 94.9 nM
- IC50 (Giardia intestinalis): 37.9 nM

SMILES: Cn1c(C(N)=O)nc2cc(Cl)ccc21
- IC50 (Trichomonas vaginalis): 186 nM
- IC50 (Giardia intestinalis): 234 nM

SMILES: CN(C)C(=O)c1nc2ccc(Cl)cc2n1C
- IC50 (Trichomonas vaginalis): 238 nM
- IC50 (Giardia intestinalis): 40 nM

SMILES: CNC(=O)c1nc2cc(Cl)c(Cl)cc2n1C
- IC50 (Trichomonas vaginalis): 225 nM
- IC50 (Giardia intestinalis): 151 nM

SMILES: CC(=O)c1nc2cc(Cl)ccc2n1C
- IC50 (Trichomonas vaginalis): 132 nM
- IC50 (Giardia intestinalis): 50.3 nM

SMILES: CN(C)C(=O)c1nc2ccccc2n1C
- IC50 (Trichomonas vaginalis): 430 nM
- IC50 (Giardia intestinalis): 512 nM

SMILES: CCCSc1ccc2[nH]c(NC(=O)OC)nc2c1 [ALBENDAZOLE]
- IC50 (Trichomonas vaginalis): 1590 nM

SMILES: Cc1ncc([N+](=O)[O-])n1CCO [METRONIDAZOLE]
- IC50 (Trichomonas vaginalis): 236 nM
